assay: Human HepG2 cell viability assay in 384 well format; assay type: toxicity, cell-based; design: dose 125 nL, time 70.5 hour; cytotoxicity at 70.5 h: concentration not given beside the values; conditions: HepG2 cells, read-out: Inhibition

| SMILES | cytotoxicity at 70.5 h |
| --- | --- |
| COCCN(C/C=C/c1ccccc1)Cc1[nH]cnc1C | 1.05% |
| CCOC(=O)CNC(=O)NCc1cccn1Cc1ccc(F)cc1 | 22.9% |
| Cn1ncc(NC(=O)c2noc3c2CCCC3)c1C(N)=O | -5.51% |
| O=C1NCCN1CCNCC1(O)CCCN(CCC2CCCCC2)C1=O (stereo not given) | -4.14% |
| CCCc1n[nH]c(C2CN(CCn3cccn3)CCO2)n1 (stereo not given) | -6.79% |
| CS(=O)(=O)NCCC(=O)NCc1cccnc1-n1cnc2ccccc21 | -12.6% |
| Cc1nc(-c2cccnc2)ncc1C(=O)N1CCC(C(C)N(C)C)CC1 (stereo not given) | -2.91% |
| CCn1c(C2CCCN(S(=O)(=O)C3CC3)C2)nn(CCN(C)C)c1=O (stereo not given) | 0.856% |
| O=C(NCCc1coc(-c2ccc(F)cc2)n1)NCC1CCOC1 (stereo not given) | 20.9% |
| O=C(C1CC(=O)N(c2ccccc2Br)C1)N1CCN(CC(F)(F)F)CC1 (stereo not given) | -8.32% |
| Cc1c(C(=O)N2CCC3(CCCN(CC4CC4)C3=O)C2)ccn1C (stereo not given) | 15.8% |
| CC(C)NC(=O)N1CCN(C(=O)C(C)C)CC2(CC(=O)N(C)C2)C1 (stereo not given) | 7.84% |
| O[C@@H]1C[C@@](CNCC2CC2)(COc2cccnc2)C[C@@H]1O | -7.73% |
| Cc1cccc2nc(CSCC(=O)Nc3nnc(C(C)C)s3)cc(=O)n12 | -10.6% |
| c1ccc2c3c([nH]c2c1)C(c1nn[nH]n1)CCC3 (stereo not given) | -10.7% |
| O=C(NCC1CCOC1)c1csc(-c2ccco2)n1 (stereo not given) | 21.2% |
| Cn1cc(C(=O)N2CCC(Cc3nccs3)CC2)cn1 | 22.3% |
| Cc1nn(CCCNC(=O)C2CCN(S(C)(=O)=O)CC2)c(Cl)c1Cl | -7.28% |
| CC(=O)Nc1ccc(C(=O)Nc2cnc3n2CCCC3)c(C)c1 | -1.77% |
| O=C(c1ccno1)N1CCc2ncnc(-c3ccncc3)c2CC1 | 1.37% |
| CC(C)(C)n1nc(C(=O)NC2CCN(CC(N)=O)CC2)cc1C1CC1 | -11.7% |
| CCN1CCC(NC(=O)CN2CCCC2Cn2nc(C)cc2C)CC1 (stereo not given) | -9.53% |
| Cc1cc(CNC(=O)CC2CCN(C(C)C)CC2)n(C)n1 | 16.3% |
| Cn1cc(C(=O)N2CCOc3cc(F)ccc32)ccc1=O | -7.98% |
| O=C(c1ccccn1)N1CCCC2(CCN(c3ccsc3)C2=O)C1 (stereo not given) | 12.8% |
| CC(C)=CCN1CC2(CCN(Cc3cccc(C#N)c3)CC2)CC1=O | 8.66% |
| CCN(C)c1ncnc2c1CCN(Cc1ccncc1)CC2 | -0.527% |

| SMILES | cytotoxicity at 70.5 h |
| --- | --- |
| Cc1cc(C)n(CC2CN(CC(=O)NC(C3CC3)C3CC3)CCO2)n1 (stereo not given) | -4.44% |
| Cc1nc(C)n(CC2CCCCN2CCCS(N)(=O)=O)n1 (stereo not given) | -5.16% |
| CC[C@H]1CN2CC[C@H]1C[C@@H]2CNC(=O)Nc1cccc(C(F)(F)F)c1 | -3.6% |
| CCC(CC)C(O)CNC(=O)Nc1cccc(-c2nccn2C)c1 (stereo not given) | -3.63% |
| O=C(CN1CCCC1c1nc2cc(F)ccc2[nH]1)NCc1ccccn1 (stereo not given) | -3.28% |
| N#Cc1cccc(CN2C[C@@H]3CN(c4ncccn4)C[C@@H]3C2)c1 | -6.36% |
| O=C(c1ccnnc1)N1CCC2(CC1)CN(c1ccccn1)CCO2 | -10.9% |
| Cc1c(Cl)c(C(=O)NN2CCOCC2)nn1C | -8.4% |
| CNC(=O)CN1CCCC(Cc2ccccc2OC)C1 (stereo not given) | 5.69% |
| Cc1nc(-c2ccncc2)nc(N(C)CCc2ccncc2)c1C | 4.43% |
| CCOC(=O)C(CO)NC(=O)CCc1cccc(OC2CCCC2)c1 (stereo not given) | -3.2% |
| Cc1cc(C)nc(N2CCC(Cn3cc(C(=O)N(C)C)cn3)CC2)n1 | -3.57% |
| CC1(C)CC1(C(=O)N1CC(c2cccnc2)C1)c1ccc(F)cc1 (stereo not given) | 29.7% |
| CC(C)N(C)Cc1noc2c1CN(C(=O)c1ccsc1)CC2 | -12.5% |
| Cc1nc(COC[C@@H]2CC[C@H]3[C@H](CCN3c3ncccn3)O2)cs1 | -7.79% |
| CN1C(=N)NC(=O)/C1=C/c1ccc(-c2ccc(Br)cc2)o1 | 1.84% |
| O=C(Cn1cc(C(=O)O)cn1)Nc1c(Cl)cccc1Cl | -5.99% |
| Cc1nc(N2CCN(C(=O)c3ccco3)CC2)c2c(n1)c(C)nn2C | -6.71% |
| O=C(c1cc(F)ccc1O)N1CCN(C2CCOCC2)CC1 | 0.856% |
| CCn1c(CN(C)C)nnc1C1CCN(Cc2ccc(Cl)cc2)CC1 | 0.347% |
| Cc1nn(C)c(C)c1C1CCCN1Cc1nc(-c2ccco2)oc1C (stereo not given) | -2.24% |
| Cc1[nH]ncc1CCCNC(=O)N1CCC(C(N)=O)CC1 | -4.17% |
| Nc1nccnc1C1CN(C(=O)c2cnccn2)CCO1 (stereo not given) | -4.25% |
| CCN(CC)S(=O)(=O)CC(=O)N1CCc2ccc(F)cc21 | -2.84% |
| COCCCn1ccc(NS(=O)(=O)c2cc(C)c(F)cc2F)n1 | -15.7% |
| CC(C)CN1CC[C@@H]2[C@@H]1CCN2C(=O)N(C)C | -11.8% |
| Cc1cnc(N2CCC(c3ccccc3)CC2)nc1-c1ccnn1C | -6.13% |

| SMILES | cytotoxicity at 70.5 h |
| --- | --- |
| Cc1nc(CN2C(=O)COC3(CCN(Cc4ccsc4)CC3)C2C)cs1 (stereo not given) | -1.09% |
| Nc1cc2c(nn1)CCN(C(=O)Cc1ccc3c(c1)CCCC3)C2 | -2.05% |
| Cc1ccc(CN(CC(=O)NCC2CCOC2)c2ccc(F)cc2)o1 (stereo not given) | -3.8% |
| CCn1cnnc1C1CCN(C(=O)c2cccc(C)c2C)CC1 | 30.1% |
| CCCc1n[nH]c(C2CN(Cc3nnc(C4CC4)n3C)CCO2)n1 (stereo not given) | -5.29% |
| CN(C)CCO[C@H]1CN(C(=O)c2cccs2)[C@@H]2COC[C@H]12 | 20.9% |
| c1ccc(Cn2ccnc2CNCC2CCCN2c2cccnn2)cc1 (stereo not given) | 4.91% |
| CCCN1CCN(Cc2cccc(OC(C)C)c2)[C@H]2CS(=O)(=O)C[C@H]21 | 12.5% |
| Cc1csc(N2CCN(C(=O)Cc3cccs3)CC2)n1 | -2.84% |
| COc1c(C2CCCN2C(=O)c2cccn2C)c(C)nn1C (stereo not given) | 13.8% |
| O=C(c1ccc(C2CCCN2)s1)N1CCN(C(=O)N2CCOCC2)CC1 (stereo not given) | -6.24% |
| CCOCCCNC(=O)CCSCc1csc(C)n1 | -2.1% |
| Cc1cnn(C2CCCN(C(=O)c3cc(-c4cccs4)n[nH]3)C2)c1 (stereo not given) | -4.05% |
| c1cc(-c2n[nH]cc2-c2ccnc(N3CCCC3)n2)ccn1 | -2.36% |
| Cc1nc(C2CCCN(C(=O)c3ccc(OCC4CC4)cc3)C2)no1 (stereo not given) | 31% |
| O=C(CCNC(=O)c1ccoc1)Nc1ccc(F)cc1F | -10.2% |
| CCc1ncncc1C(=O)NCCNc1ncnc2sccc12 | -21.7% |
| COCc1noc(C2(c3ccc(F)cc3)CCOCC2)n1 | 28.8% |
| Cc1cc(-c2ccccc2Cl)nc(N)n1 | -8.36% |
| Cc1cccc(C(=O)N2CCC3(CCN(c4cnn(C)c4)C3=O)C2)n1 (stereo not given) | -1.73% |
| Cc1cc(NC2CCN(CC3CCCO3)CC2)n2nc(C)c(C)c2n1 (stereo not given) | 4.66% |
| O=c1c(S(=O)(=O)N2CCCCC2)cccn1Cc1cccnc1 | -9.28% |
| Cc1nn(CC(=O)N2CCN(Cc3cnn(C)c3C)CC2)cc1Cl | -9.22% |
| Cc1ccc(N(CC(=O)NCc2nnc3n2CCC3)S(C)(=O)=O)cc1 | 5.02% |
| Cc1nccc(-c2cccc(NCC(=O)NCC(=O)N3CCCC3)c2)n1 | -3.17% |
| CS(=O)(=O)N1CCN(C(=O)c2cc(-c3ccc(Br)s3)n[nH]2)CC1 | -10.2% |
